# US12459951B2, “Compounds that interact with RAS superfamily proteins for treatment of cancers, inflammatory diseases, rasopathies, and fibrotic disease” (SHY Therapeutics, LLC, priority 2022, dated 2025)
# How the values were obtained:
# [1] = system: MiaPaca-2 (expressing KRAS G12C mutant); experiment: Proliferation Assay (Cell Viability Assay); type: cell-based; conditions: Homo sapiens, MIA PaCa-2; read-out: Proliferation in MiaPaca-2: IC50
# How it was run: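 After 2–4 days' exposure at 37 °C, 5% CO2 to a single 10 μM final concentration or a dilution series (IC50), percent proliferation inhibition was derived from CellTiter 96 Aqueous One viability readings. The medium contained 0.3% DMSO and 10% FBS. KRAS G12C MiaPaca-2 cells were plated at 2000–5000/well the day before.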
# [2] = system: KRas wild type; experiment: Ras GTP Binding Domain Inhibition Assay (Ras Superfamily Assay); conditions: 20 μM compound; for KRas wild type + SOS: % inh.: with SOS; for KRas wild type: % inh.: without SOS
# How it was run: (§1)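 Ni-plate capture of His-tagged protein (10-30 μg/mL, o/n 4° C); cpd 20 μM or dilution series, 1% DMSO, 3 h RT ± Sos 556-1049 last h; 100 nM Cy-labelled GTP 45 min RT; 3× wash; fluorescence read.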
# [3] = system: KRas G12C mutant; experiment: as above; conditions: 20 μM compound; for KRas G12C mutant + SOS: % inh.: with SOS; for KRas G12C mutant: % inh.: without SOS
# How it was run: as §1
# [4] = system: KRas G12D mutant; experiment: as above; conditions: 20 μM compound; for KRas G12D mutant + SOS: % inh.: with SOS; for KRas G12D mutant: % inh.: without SOS
# How it was run: as §1
SMILES,IC50 [1] [nM],KRas wild type + SOS: % inh. [2],KRas wild type: % inh. [2],KRas G12C mutant + SOS: % inh. [3],KRas G12C mutant: % inh. [3],KRas G12D mutant + SOS: % inh. [4],KRas G12D mutant: % inh. [4]
"COc1ccc(Nc2nc(-c3nccn3C)nn3cc(-c4ccn(C(C)C)n4)c(C)c23)cn1 [Compound 71, 6-(1-Isopropyl-1H-pyrazol-3-yl)-N-(6-methoxypyridin-3-yl)-5-methyl-2-(1-methyl-1H-imidazol-2-yl)pyrrolo[2,1-f][1,2,4]triazin-4-amine]",> 1000,A (A = 1-25% inhibition),0 (0 = 0% inhibition),A (A = 1-25% inhibition),0 (0 = 0% inhibition),A (A = 1-25% inhibition),A (A = 1-25% inhibition)
"Cc1c(-c2ccn(C(C)C)n2)cn2nc(-c3nccn3C)nc(Nc3ccn(C(C)C)n3)c12 [Compound 72, N,6-bis(1-Isopropyl-1H-pyrazol-3-yl)-5-methyl-2-(1-methyl-1H-imidazol-2-yl)pyrrolo[2,1-f][1,2,4]triazin-4-amine]",> 1000,C (C = 50-75% inhibition),C (C = 50-75% inhibition),C (C = 50-75% inhibition),C (C = 50-75% inhibition),D (D = 76-100% inhibition),D (D = 76-100% inhibition)
"COc1cncnc1Nc1nc(-c2nccn2C)nn2cc(-c3ccn(C(C)C)n3)c(C)c12 [Compound 73, 6-(1-Isopropyl-1H-pyrazol-3-yl)-N-(5-methoxypyrimidin-4-yl)-5-methyl-2-(1-methyl-1H-imidazol-2-yl)pyrrolo[2,1-f][1,2,4]triazin-4-amine]",< 150,B (B = 26-49% inhibition),C (C = 50-75% inhibition),B (B = 26-49% inhibition),B (B = 26-49% inhibition),B (B = 26-49% inhibition),C (C = 50-75% inhibition)

# Other lines, results leading:
IC50 [1] [nM],KRas wild type + SOS: % inh. [2],KRas wild type: % inh. [2],KRas G12C mutant + SOS: % inh. [3],KRas G12C mutant: % inh. [3],KRas G12D mutant + SOS: % inh. [4],KRas G12D mutant: % inh. [4],SMILES
> 1000,0 (0 = 0% inhibition),A (A = 1-25% inhibition),0 (0 = 0% inhibition),A (A = 1-25% inhibition),A (A = 1-25% inhibition),A (A = 1-25% inhibition),"Cc1c(-c2ccn(C(C)C)n2)cn2nc(-c3nccn3C)nc(Nc3cc(C4CC4)no3)c12 [Compound 69, 3-Cyclopropyl-N-(6-(1-isopropyl-1H-pyrazol-3-yl)-5-methyl-2-(1-methyl-1H-imidazol-2-yl)pyrrolo[2,1-f][1,2,4]triazin-4-yl)isoxazol-5-amine]"
> 1000,0 (0 = 0% inhibition),A (A = 1-25% inhibition),0 (0 = 0% inhibition),A (A = 1-25% inhibition),A (A = 1-25% inhibition),A (A = 1-25% inhibition),"Cc1c(-c2ccn(C(C)C)n2)cn2nc(-c3nccn3C)nc(Nc3nc(C4CC4)no3)c12 [Compound 70, 3-Cyclopropyl-N-(6-(1-isopropyl-1H-pyrazol-3-yl)-5-methyl-2-(1-methyl-1H-imidazol-2-yl)pyrrolo[2,1-f][1,2,4]triazin-4-yl)-1,2,4-oxadiazol-5-amine]"
